According to patent US20080312230A1, “Organic Compounds” (Novartis AG, priority 2005, published 2008):

Target: T1, CRTh2 receptor (Homo sapiens, UniProt Q9Y5Y4)
T1 construct: expressed in transfected cells; host or cells: CHO.K1 (Chinese Hamster Ovary)
T1 sequence (Q9Y5Y4 1-395): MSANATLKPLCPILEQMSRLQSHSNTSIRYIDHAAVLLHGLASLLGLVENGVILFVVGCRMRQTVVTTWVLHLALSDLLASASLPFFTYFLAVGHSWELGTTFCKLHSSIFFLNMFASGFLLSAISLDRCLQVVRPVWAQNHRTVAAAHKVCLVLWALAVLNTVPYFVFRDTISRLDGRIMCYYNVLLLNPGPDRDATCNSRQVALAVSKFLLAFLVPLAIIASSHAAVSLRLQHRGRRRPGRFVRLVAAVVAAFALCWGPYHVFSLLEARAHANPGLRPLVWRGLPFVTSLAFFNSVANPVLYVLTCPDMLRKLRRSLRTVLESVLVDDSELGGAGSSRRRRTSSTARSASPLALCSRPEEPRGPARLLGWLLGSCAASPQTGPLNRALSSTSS
Experiment: Filtration binding assay: [3H]-PGD2 competition on CHO.K1-CRTh2 membranes
Settings: competition with 2.5 nM [3H]-PGD2, CHO.K1-CRTh2 membranes, Cheng-Prussoff; read-out: Ki values in the SPA binding assay
Experimental: Filtration Binding Assay Protocol
The binding of CRTh2 antagonists is determined using membranes prepared from human CRTh2-expressing Chinese Hamster Ovary cells (CHO.K1-CRTh2). To produce cell membranes CHO.K1-CRTh2 cells cultured in roller bottles are harvested using cell dissociation buffer (Invitrogen). The cells are pelleted by centrifugation (167 g, 5 min). The cell pellet is incubated in hypotonic buffer (15 mM Tris-OH, 2 mM MgCl2, 0.3 mM EDTA, 1 mM EGTA, 1× Complete™ tablet) at 4° C. for 30 min. At 4° C. cells are homogenized using a Polytron® (IKA Ultra Turrax T25) for 5 bursts of 1 second. The homogenate is centrifuged (Beckman Optima TM TL Ultracentrifuge, 48000 g, 30 min at 4° C.). The supernatant is discarded and the membrane pellet resuspended in homogenisation buffer (75 mM Tris-OH, 12.5 mM MgCl2, 0.3 mM EDTA, 1 mM EGTA, 250 mM Sucrose, 1× Complete™ tablet. Membrane preparations are aliquoted and stored at […]. The protein content is estimated using Bradford Protein Assay Dye (Bio Rad).
The binding of [^3H]-PGD2 (157 Ci/mmol) to CHO.K1-CRTh2 membranes is determined in the absence (total binding) and presence (non-specific binding) of unlabelled PGD2 (1 μM). Subtraction of the cpm (counts per minute) of [^3H]-PGD2 binding in presence of excess unlabelled PGD2 from that observed in the absence of excess unlabelled PGD2 is defined as specific binding. Active CRTh2 antagonists are able to compete with [^3H]-PGD2 for binding to the CRTh2 receptor and are identified in a decrease in the number of cpm bound.
The assay is performed in Greiner U-bottomed 96 well-plates, in a final volume of 100 μl per well. CHO.K1-CRTh2 membranes were diluted in assay buffer (10 mM HEPES-KOH (pH 7.4), 1 mM EDTA and 10 mM MnCl2) and 10 μg are added to each well. [^3H]-PGD2 is diluted in assay buffer and added to each well at a final concentration of 2.5 nM. To determine non-specific binding, [^3H]-PGD2 binding to the CRTh2 receptor is competed with using unlabelled PGD2 at a final well concentration of 1 μM. The experiment is done in triplicate, with reagents added to the wells as follows:
25 μL assay buffer for total binding or
25 μL PGD2 to determine non-specific binding
25 μL test compound in DMSO/assay buffer
The plates are incubated at room temperature on a shaker for 1 hour, and then harvested (Tomtec Harvester 9600) onto GF/C filter plates using wash buffer (10 mM HEPES-KOH, pH 7.4). The plate is dried for 2 hours, prior to addition of Micro-Scint 20™ (50 μL) and sealing with TopSeal-S™. Plates are then counted using a Packard Top Count instrument, Plates are then read on the Packard Topcount with the 3H Scintillation program (1 min per well).
Ki (dissocation constant for the inhibition) values for the CRTh2 antagonists are reported. Ki values are determined using Sigma Plot™ software, using the Cheng-Prussoff equation.
Where S is the Concentration of Radioligand and Kd is the Dissociation Constant.

Question: With Cc1c(CC(=O)O)c2cccnc2n1Cc1ccc(C(F)(F)F)cc1C(F)(F)F [Example 119, [1-(2,4-Bis-trifluoromethyl-benzyl)-2-methyl-1H-pyrrolo[2,3-b]pyridin-3-yl]-acetic acid] as the compound, how does the Ki read?
Answer: 29 nM

Question: With Cc1c(CC(=O)O)c2cccnc2n1C(C)c1ccc(C(F)(F)F)cc1 (stereo not drawn) [Example 115, {2-Methyl-1-[1-(4-trifluoromethyl-phenyl)-ethyl]-1H-pyrrolo[2,3-b]pyridin-3-yl}-acetic acid] as the compound, how does the Ki read?
Answer: 45 nM

Question: With COc1cc(S(=O)(=O)n2c(C)c(CC(=O)O)c3cccnc32)ccc1C#N [Example 129, [1-(4-Cyano-3-methoxy-benzenesulfonyl)-2-methyl-1H-pyrrolo[2,3-b]pyridin-3-yl]-acetic acid] as the compound, how does the Ki read?
Answer: 43 nM

Question: Which Ki does the source give for CCS(=O)(=O)c1ccc(Cn2c(C)c(CC(=O)O)c3cccnc32)c(C(F)(F)F)c1 [Example 93, [1-(4-Ethanesulfonyl-2-trifluoromethyl-benzyl)-2-methyl-1H-pyrrolo[2,3-b]pyridin-3-yl]-acetic acid] here?
Answer: 8 nM

Question: CCCOc1cc(S(=O)(=O)n2c(C)c(CC(=O)O)c3cccnc32)ccc1C#N [Example 130, [1-(4-Cyano-3-propoxy-benzenesulfonyl)-2-methyl-1H-pyrrolo[2,3-b]pyridin-3-yl]-acetic acid] was tested. Which Ki did it give?
Answer: 50 nM

Question: Which Ki does the source give for Cc1c(CC(=O)O)c2cccnc2n1S(=O)(=O)c1ccc(Cl)c(C#N)c1 [Example 103, [1-(4-Chloro-3-cyano-benzenesulfonyl)-2-methyl-1H-pyrrolo[2,3-b]pyridin-3-yl]-acetic acid] here?
Answer: 35 nM

Question: For COc1cc(S(=O)(=O)n2c(C)c(CC(=O)O)c3cccnc32)ccc1F [Example 102, [1-(4-Fluoro-3-methoxy-benzenesulfonyl)-2-methyl-1H-pyrrolo[2,3-b]pyridin-3-yl]-acetic acid], which Ki is on record?
Answer: 56 nM

Question: With Cc1c(CC(=O)O)c2cccnc2n1C(C)c1ccc(S(C)(=O)=O)cc1 (single isomer, unassigned) [Example 97, {1-[1-(4-Methanesulfonyl-phenyl)-ethyl]-2-methyl-1H-pyrrolo[2,3-b]pyridin-3-yl}-acetic acid] as the compound, how does the Ki read?
Answer: 11 nM

Question: Cc1c(CC(=O)O)c2cccnc2n1C(C)c1ccc(S(C)(=O)=O)cc1 (stereo not drawn) [Example 117, {1-[1-(4-Methanesulfonyl-phenyl)-ethyl]-2-methyl-1H-pyrrolo[2,3-b]pyridin-3-yl}-acetic acid] was tested. Which Ki did it give?
Answer: 25 nM

Question: How did the Ki turn out when Cc1c(CC(=O)O)c2ccc(Cl)nc2n1Cc1ccc(S(C)(=O)=O)cc1 [Example 99, [6-Chloro-1-(4-methanesulfonyl-benzyl)-2-methyl-1H-pyrrolo[2,3-b]pyridin-3-yl]-acetic acid] was run?
Answer: 12 nM

Question: With Cc1c(CC(=O)O)c2ccc(Cl)nc2n1Cc1ccc(S(C)(=O)=O)cc1C(F)(F)F [Example 100, [6-Chloro-1-(4-methanesulfonyl-2-trifluoromethyl-benzyl)-2-methyl-1H-pyrrolo[2,3-b]pyridin-3-yl]-acetic acid] as the compound, how does the Ki read?
Answer: 5 nM

Question: How did the Ki turn out when Cc1cc(S(C)(=O)=O)ccc1Cn1c(C)c(CC(=O)O)c2cccnc21 [Example 112, [1-(4-Methanesulfonyl-2-methyl-benzyl)-2-methyl-1H-pyrrolo[2,3-b]pyridin-3-yl]-acetic acid] was run?
Answer: 31 nM

Question: With COc1cc(S(=O)(=O)n2c(C)c(CC(=O)O)c3cccnc32)ccc1Cl [Example 148, [1-(4-Chloro-3-methoxy-benzenesulfonyl)-2-methyl-1H-pyrrolo[2,3-b]pyridin-3-yl]-acetic acid] as the compound, how does the Ki read?
Answer: 64 nM

Question: Which Ki does the source give for Cc1c(CC(=O)O)c2cccnc2n1Cc1ccc(S(C)(=O)=O)cc1Cl [Example 90, [1-(2-Chloro-4-methanesulfonyl-benzyl)-2-methyl-1H-pyrrolo[2,3-b]pyridin-3-yl]-acetic acid] here?
Answer: 3 nM

Question: For Cc1c(CC(=O)O)c2cccnc2n1Cc1ccc(S(=O)(=O)C(C)C)cc1 [Example 105, {2-Methyl-1-[4-(propane-2-sulfonyl)-benzyl]-1H-pyrrolo[2,3-b]pyridin-3-yl}-acetic acid], which Ki is on record?
Answer: 98 nM

Question: CCOc1cc(S(=O)(=O)n2c(C)c(CC(=O)O)c3cccnc32)ccc1C#N [Example 127, [1-(4-Cyano-3-ethoxy-benzenesulfonyl)-2-methyl-1H-pyrrolo[2,3-b]pyridin-3-yl]-acetic acid] was tested. Which Ki did it give?
Answer: 43 nM

Question: For Cc1c(CC(=O)O)c2cccnc2n1Cc1ccc([N+](=O)[O-])cc1 [Example 122, [2-Methyl-1-(4-nitro-benzyl)-1H-pyrrolo[2,3-b]pyridin-3-yl]-acetic acid], which Ki is on record?
Answer: 147 nM

Question: Which Ki does the source give for Cc1c(CC(=O)O)c2cccnc2n1Cc1ccc(S(C)(=O)=O)cc1 [Example 96] here?
Answer: 29 nM

Question: For Cc1c(CC(=O)O)c2cccnc2n1Cc1ccc(S(C)(=O)=O)c(C(F)(F)F)c1 [Example 92, [1-(4-Methanesulfonyl-3-trifluoromethyl-benzyl)-2-methyl-1H-pyrrolo[2,3-b]pyridin-3-yl]-acetic acid], which Ki is on record?
Answer: 22 nM

Question: With Cc1c(CC(=O)O)c2cccnc2n1C(C)c1ccc(Cl)cc1 (stereo not drawn) [Example 84, {1-[1-(4-Chloro-phenyl)-ethyl]-2-methyl-1H-pyrrolo[2,3-b]pyridin-3-yl}-acetic acid] as the compound, how does the Ki read?
Answer: 100 nM

Question: For Cc1c(CC(=O)O)c2cccnc2n1Cc1ccc(S(C)(=O)=O)c(Cl)c1 [Example 125, [1-(3-Chloro-4-methanesulfonyl-benzyl)-2-methyl-1H-pyrrolo[2,3-b]pyridin-3-yl]-acetic acid], which Ki is on record?
Answer: 27 nM

Question: CCS(=O)(=O)c1ccc(Cn2c(C)c(CC(=O)O)c3cccnc32)c(Cl)c1 [Example 94, [1-(2-Chloro-4-ethanesulfonyl-benzyl)-2-methyl-1H-pyrrolo[2,3-b]pyridin-3-yl]-acetic acid] was tested. Which Ki did it give?
Answer: 7 nM

Target: T1, CRTh2 receptor
Experiment: CRTH2 cAMP functional assay in CHO.K1-CRTh2 cells
Type: cell-based
Settings: not given
Experimental: The assay plate is incubated at room temperature on a shaker for 15 minutes.
A mix of agonist (10 nM Prostaglandin D2) and 5 μM forskolin is prepared in assay stimulation buffer and added to the assay plate (5 μL/well).
In addition, a cAMP standard is serially diluted in assay stimulation buffer and added to separate empty wells on the assay plate (20 μL/well).
The assay plate is incubated at room temperature on a shaker for 60 minutes.
The resulting lysis mix is added to all wells of the assay plate (40 μL/well).
The assay plate is sealed with Topseal-S™ and incubated in the dark at room temperature on a shaker for 45 minutes. The plate is then counted using a Packard Fusion™ instrument.
The resulting counts per minute are converted to nM cAMP by using the prepared cAMP standard curve.

Question: Cc1c(CC(=O)O)c2cccnc2n1S(=O)(=O)c1ccc([N+](=O)[O-])cc1 [Example 3] was tested. Which IC50 did it give?
Answer: 276 nM

Question: For Cc1c(CC(=O)O)c2cccnc2n1C(C)c1ccc(Cl)cc1 (stereo not drawn) [Example 84, {1-[1-(4-Chloro-phenyl)-ethyl]-2-methyl-1H-pyrrolo[2,3-b]pyridin-3-yl}-acetic acid], which IC50 is on record?
Answer: 84 nM
